Test results published in patent publication US20250034135A1, “ANTI-APOPTOTIC PROTEIN BCL-2 INHIBITOR, PHARMACEUTICAL COMPOSITION AND USES THEREOF” (HANGZHOU HEALZEN THERAPEUTICS CO., LTD., priority 2021, published 2025).
Like-named read-outs stand apart in the source and are kept apart here.

Tests used:
BCL2 (G101V) = BCL2 (G101V) (Homo sapiens (Human), UniProt P10415, G101V); assay: Molecular level activity test of anti-apoptotic protein BCL2 (G101V) (HTRF, binding to Bim peptide); settings: inhibition of BCL2 (G101V) binding to Bim peptide, read-out: BCL-2 (G101V)
Procedure, shortened: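 His-tagged recombinant BCL2 (G101V) incubated 1 h with biotin-BIM peptide and compound (2% DMSO), then anti-His and streptavidin-XL665 detection reagents added for 4 h at room temperature. HTRF signal reflects compound effect on BCL2–BIM binding.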

BCL2 = BCL2 (Homo sapiens (Human), UniProt P10415); assay: Molecular level activity test of anti-apoptotic protein BCL2 (HTRF, binding to Bim peptide); settings: HTRF, binding of BCL2 to Bim peptide; read-out: BCL2 nM (inhibitory activity, IC50)
Procedure, shortened: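 Signal comes from proximity of anti-His-labelled BCL2 and streptavidin-XL665-bound biotin-BIM peptide. Test compounds, added in 2% DMSO, were preincubated with protein and peptide for one hour; detection reagents then incubated four hours at room temperature before reading.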

human CYP3A4 enzyme = human CYP3A4 enzyme (Homo sapiens (Human), UniProt P08684); assay: CYP3A4 enzyme inhibitory activity (Vivid CYP3A4 Green screening kit)
Chain of human CYP3A4 enzyme (P08684 whole entry): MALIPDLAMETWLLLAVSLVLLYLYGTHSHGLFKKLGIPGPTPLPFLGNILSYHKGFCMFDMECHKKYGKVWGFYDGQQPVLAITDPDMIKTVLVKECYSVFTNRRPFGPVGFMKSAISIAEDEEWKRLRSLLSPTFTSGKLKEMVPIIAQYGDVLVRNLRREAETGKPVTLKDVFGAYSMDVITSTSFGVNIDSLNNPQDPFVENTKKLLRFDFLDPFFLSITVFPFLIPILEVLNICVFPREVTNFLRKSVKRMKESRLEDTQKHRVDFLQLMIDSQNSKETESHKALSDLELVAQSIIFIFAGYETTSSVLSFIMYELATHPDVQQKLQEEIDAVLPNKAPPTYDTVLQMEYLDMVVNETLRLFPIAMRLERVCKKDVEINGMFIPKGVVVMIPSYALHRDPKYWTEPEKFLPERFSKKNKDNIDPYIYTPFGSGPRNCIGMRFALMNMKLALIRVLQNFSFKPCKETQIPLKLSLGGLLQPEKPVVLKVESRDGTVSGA
Method: The inhibitory activity of compounds on human CYP3A4 enzyme was detected using a VIVID™ CYP3A4 GREEN SCRNING KIT reagent kit. The Vivid™ CYP450 screening kit includes a Vivid™ substrate, Vivid™ fluorescence standard, reaction buffer, Vivid™ regeneration system, NADP+ and CYP450 BACULOSOMES™ Plus reagent. Operations were performed following the instructions, and a blank control group was set up without adding any compounds.
The IC50 value of the compounds inhibiting human CYP3A4 enzyme was calculated using Graphpad Prism 7.00 software through the formula Y=100/(1+10^((Log IC50−X)*HillSlope)).

BCL-XL = BCL-XL (Homo sapiens (Human), UniProt Q07817); assay: BCL-XL enzyme molecular level activity test (HTRF, binding to BIM peptide); settings: binding of BCL-XL to BIM peptide, read-out: BCL-XL inhibitory activity (IC50)
Chain of BCL-XL (Q07817 whole entry): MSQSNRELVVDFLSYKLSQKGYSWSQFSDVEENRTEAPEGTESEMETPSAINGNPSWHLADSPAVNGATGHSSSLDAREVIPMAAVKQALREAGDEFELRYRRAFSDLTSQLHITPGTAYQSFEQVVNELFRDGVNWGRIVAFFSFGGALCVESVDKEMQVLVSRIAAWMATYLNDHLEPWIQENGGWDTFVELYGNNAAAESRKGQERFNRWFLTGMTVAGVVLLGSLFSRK
Procedure, shortened: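 HTRF binding assay: His-tagged recombinant BCL-XL with biotin-BIM peptide and compound (2% DMSO), 1 h. Anti-His and streptavidin-XL665 detection reagents added, 4 h at room temperature. Excitation 320 nm; 665/615 nm ratio reflects binding, with no-protein background and no-compound full-binding controls.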

BCL2 (D103Y) = BCL2 (D103Y) (Homo sapiens (Human), UniProt P10415, D103Y); assay: Molecular level activity test of BCL2 (D103Y) (HTRF, binding to Bim peptide); settings: read-out: BCL-2 (D103Y) (nM) (inhibitory activity, IC50)
Procedure, shortened: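 His-tagged recombinant protein mixed with biotinylated BIM peptide and compound (2% DMSO), reacted 1 h. Anti-His and streptavidin-XL665 detection reagents then added and incubated 4 h at room temperature before HTRF read-out of binding inhibition.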

RS4; 11 cells = assay: Tumor proliferation inhibitory activity test (MTS) on RS4; 11; type: cell-based; settings: Homo sapiens, RS4-11, 72 h, 3 days incubation
Procedure, shortened: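 RS4;11 cells were exposed to serially diluted compound (0.2% DMSO control) for 3 days at 37 °C/5% CO2, followed by MTS for 3–4 h. Read-out was OD490−OD690, and inhibition was calculated relative to the DMSO and blank wells.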

[1] = read-out: CYP3A4 (IC50), Vivid CYP3A4 Green screening kit

| Structure (SMILES) | IC50 (BCL2 (G101V)) | IC50 (BCL2) | IC50 (human CYP3A4 enzyme; [1]) | IC50 (BCL-XL; values given in μM) | IC50 (BCL2 (D103Y)) | IC50 (RS4; 11 cells) | IC50 (human CYP3A4 enzyme) | IC50 (BCL-XL; values in nM) |
| --- | --- | --- | --- | --- | --- | --- | --- | --- |
| COc1ccc(CN2CCN(C3CC4(CCN(c5cc(Oc6cnc7[nH]ccc7c6)c(C(=O)NS(=O)(=O)c6ccc(NCC7CCOCC7)c([N+](=O)[O-])c6)cn5)CC4)C3)C(c3ccccc3C(C)C)C2)cc1 (stereo not drawn) [compound 063, 4-((1H-pyrrolo[2,3-b]pyrid-5-yl)oxy)-6-(2-(2-(2-isopropylphenyl)-4-(4-methoxybenzyl)piperazin-1-yl)-7-azaspiro[3.5]non-7-yl)-N-((3-nitro-4-(((tetrahydro-2H-pyran-4-yl)methyl)amino)phenyl)sulfonyl) nicotinamide] | < 10 nM | < 10 nM | > 20000 nM | > 1 µM | < 10 nM | < 0.5 nM | – | – |
| COc1ccc(CN2CCN(C3CC4(CCN(c5cc(Oc6cnc7[nH]ccc7c6)c(C(=O)NS(=O)(=O)c6cc([N+](=O)[O-])c(NC[C@H]7CC[C@](C)(O)CC7)c7[nH]cnc67)cc5F)CC4)C3)[C@H](c3ccccc3C(C)C)C2)cc1 [compound 262, 2-((1H-pyrrolo[2,3-b]pyrid-5-yl)oxy)-5-fluoro-N-((7-((((1r,4r)-4-hydroxy-4-methylcyclohexyl)methyl)amino)-6-nitro-1H-benzo[d]imidazol-4-yl)sulfonyl)-4-(2-((R)-2-(2-isopropylphenyl)-4-(4-methoxybenzyl)piperazin-1-yl)-7-azaspiro[3.5]non-7-yl)benzamide] | < 10 nM | < 10 nM | > 20000 nM | > 1 µM | < 10 nM | 0.5 to 1 nM | – | – |
| CC(C)c1ccccc1[C@@H]1CCCN1C1CC2(CCN(c3ccc(C(=O)NS(=O)(=O)c4cc([N+](=O)[O-])c(NCC5(F)CCN(C6COC6)CC5)c5[nH]cnc45)c(Oc4cnc5[nH]ccc5c4)c3)CC2)C1 [compound 002] | < 10 nM | < 10 nM | – | – | < 10 nM | 0.5 to 1 nM | > 20000 nM | > 0.5 µM |
| COc1ccc(CN2CCN(C3CC4(CCN(c5cc(Oc6cnc7[nH]ccc7c6)c(C(=O)NS(=O)(=O)c6cc([N+](=O)[O-])c(NCC7CCOCC7)c7[nH]cnc67)cc5F)CC4)C3)[C@H](c3ccccc3C(C)C)C2)cc1 [compound 263, (R)-2-((1H-pyrrolo[2,3-b]pyrid-5-yl)oxy)-5-fluoro-4-(2-(2-(2-isopropylphenyl)-4-(4-methoxybenzyl)piperazin-1-yl)-7-azaspiro[3.5]non-7-yl)-N-((6-nitro-7-(((tetrahydro-2H-pyran-4-yl)methyl)amino)-1H-benzo[d]imidazol-4-yl)sulfonyl)benzamide] | < 10 nM | < 10 nM | > 20000 nM | 1.3 µM | < 10 nM | 0.5 to 1 nM | – | – |
| COc1ccc(CN2CCN(C3CC4(CCN(c5cc(Oc6cnc7[nH]ccc7c6)c(C(=O)NS(=O)(=O)c6cc([N+](=O)[O-])c(NCC7(F)CCOCC7)c7[nH]cnc67)cn5)CC4)C3)[C@H](c3ccccc3C(C)C)C2)cc1 [compound 268, (R)-4-((1H-pyrrolo[2,3-b]pyrid-5-yl)oxy)-N-((7-(((4-fluorotetrahydro-2H-pyran-4-yl)methyl)amino)-6-nitro-1H-benzo[d]imidazol-4-yl)sulfonyl)-6-(2-(2-(2-isopropylphenyl)-4-(4-methoxybenzyl)piperazin-1-yl)-7-azaspiro[3.5]non-7-yl) nicotinamide] | < 10 nM | < 10 nM | > 20000 nM | – | < 10 nM | < 0.5 nM | – | > 0.5 µM |
| CC(C)c1ccccc1[C@@H]1CN(Cc2cccc(F)c2F)CCN1C1CC2(CCN(c3cc(Oc4cnc5[nH]ccc5c4)c(C(=O)NS(=O)(=O)c4ccc(NCC5(F)CCOCC5)c([N+](=O)[O-])c4)cc3F)CC2)C1 [compound 189, (R)-2-((1H-pyrrolo[2,3-b]pyrid-5-yl)oxy)-4-(2-(4-(2,3-difluorobenzyl)-2-(2-isopropylphenyl)piperazin-1-yl)-7-azaspiro[3.5]non-7-yl)-5-fluoro-N-((4-(((4-fluorotetrahydro-2H-pyran-4-yl)methyl)amino)-3-nitrophenyl)sulfonyl)benzamide] | < 10 nM | < 10 nM | > 20000 nM | 1.9 µM | < 10 nM | < 0.5 nM | – | – |
